Data reported in patent US20100011610A1, “FLUIDIZED SPRAY DRYING” (Vertex Pharmaceuticals Incorporated, priority 2006, published 2010).

Assay: in vivo
Settings: rat, po

CCC[C@H](NC(=O)[C@@H]1[C@H]2CCC[C@H]2CN1C(=O)[C@@H](NC(=O)[C@@H](NC(=O)c1cnccn1)C1CCCCC1)C(C)(C)C)C(=O)C(=O)NC1CC1 [VX-950, Telaprevir]
bioavailability: < 0.5%
